Where two headings read alike, the source gives them in different places.
How the values were obtained:
[1] = tested on: 3D7 P. falciparum parasites; experiment: Growth inhibition assay (72 h, LDH activity); assay type: cell-based, Plasmodium falciparum; conditions: for inhibition at 0.625 µM / inhibition at 1.25 µM / inhibition at 2.5 µM / inhibition at 5 µM / inhibition at 10 µM / EC50 / inhibition at 0.0390625 µM / inhibition at 0.078125 µM / inhibition at 0.15625 µM / inhibition at 0.3125 µM: Plasmodium falciparum; for inhibition at 10 µM: read-out: % Inhibition; for inhibition at 0.0390625 µM: 3D7, M-833 0.0390625 uM; for inhibition at 0.078125 µM: 3D7, M-833 0.078125 uM; for inhibition at 0.15625 µM: 3D7, M-833 0.15625 uM; for inhibition at 0.3125 µM: 3D7, M-833 0.3125 uM
Protocol: Parasite growth assays with inhibitory compounds were performed as per[11] and are fully described in the Supplementary Information. […]
Growth inhibition assays. Synchronised ring-stage parasites (0.3-0.6% parasitemia, 2% haematocrit) were grown for 72 h in a serial-dilution of the compound under […]
and compound 4. Note that M-833 was first purchased from MolPort (MolPort -002-267-916) then made in-house at WEHI: the differences observed in EC50s across experiments are attributed to the different batches of M -833. For some experiments, 0, 0.25 or 2.5 mM of glucosamine (GlcN) was also added. Experiments were set up in technical duplicates or triplicates. Following a freeze -thaw cycle, lactate dehydrogenase (LDH) activity was assessed as an indicator of parasite growt h 5. 30 μL of parasite culture was incubated for 30 min in the dark with 75 μL Malstat mixture (0.1 M Tris pH 9.0, 20 g/L lactic acid, pH 7.5, 0.2% Triton-X100, 0.5 g/L acetylpyridine adenine dinucleotide (APAD, Sigma), 200 μg/mL nitroblue tetrazolium (NBT; Sigma), 1 μg/mL phenozine ethosulfate (PES; Sigma)). Absorbance was then measured at 650 nm, transformed using the formula below, plotted against the logarithm of the concentrations, and a non-linear regression (log(inhibitor) vs. response, variable slope) was calculated using GraphPad Prism to assess the half-inhibitory […]
Growth inhibition % = (1 − average(sample)− average(uRBC)) ∗ 100 […]
The DMSO samples were also used to assess growth of parasite in the presence of 0.25 and 2.5 mM GlcN (normalised by DMSO in 0 mM GlcN). […]

[2] = target: T1, recombinant PfSTART1(WT) (I149-V394) (Plasmodium falciparum, UniProt Q8I298); experiment: Isothermal titration calorimetry; assay type: binding; conditions: for Differential Power DP_Y / ΔH NDH_Y: PfSTART(WT), ITC replicate data
T1 construct: START domain alone (I149-V394 from PF3D7_0104200); 8xHis tag (N); TEV protease cleavage site (N); made in house; host or cells: Sf21 insect cells (baculovirus)
T1 sequence (Q8I298 entry or part of it): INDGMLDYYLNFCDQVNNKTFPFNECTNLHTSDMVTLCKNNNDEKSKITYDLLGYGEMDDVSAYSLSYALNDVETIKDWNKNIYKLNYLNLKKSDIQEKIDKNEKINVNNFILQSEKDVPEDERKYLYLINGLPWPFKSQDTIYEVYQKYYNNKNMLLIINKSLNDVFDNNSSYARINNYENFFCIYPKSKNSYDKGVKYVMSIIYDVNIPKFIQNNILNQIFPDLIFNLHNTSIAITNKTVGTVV
Description: Codon optimised (Spodoptera frugiperda, Sf) START domain alone (I149-V394 from PF3D7_0104200) was synthesised by Integrated DNA Technologies and cloned into a modified baculovirus transfer vector (pAcGP67-A) with a N-terminal GP67-signal sequence, 8xHis tag, and TEV protease cleavage site. Recombinant baculovirus was generated via the flashBACTM Baculovirus Expression System using Sf21 cells (Life Technologies), amplified to reach a third passage viral stock, and 1.5% used to infect Sf21 for protein expression. After incubation for three days at 28 °C, media containing secreted protein was harvested by centrifugation and supplemented with 50 mM Tris pH 7.5, 20 mM MgCl2, 100 mM NaCl, and 10-20 mM imidazole. The supplemented protein sample was purified by nickel affinity chromatography (HisTrap Excel 5 mL, Cytiva), and eluted with 20 mM Tris pH 7.5, 500 mM NaCl, 300-500 mM imidazole. Eluted fractions were further purified using size-exclusion chromatography (Superdex S75 16/600 or Superdex 10/300, Cytiva) with the column pre-equilibrated with 20 mM HEPES pH 7.5, 150 mM NaCl, and peak-containing fractions concentrated and stored at -80 °C until required. If required, prior to ITC, a second size-exclusion chromatography step was performed to remove soluble aggregates.
ITC experiments were performed on a MicroCal PEAQ-ITC calorimeter at 25 °C, with a stirring speed of 750 rpm and a reference power of 5 μcal/sec. 500 μM M-833 series inhibitor solutions were diluted to 10 μM in 50 mM NaPO4^-3 (pH 7.4), 150 mM NaCl with a final DMSO concentration of 2% (v/v) (cell sample). PfSTART1 protein was dialysed extensively against 50 mM NaPO4^-3 (pH 7.4), 150 mM NaCl, before diluting to 90 μM in the same buffer with 2% (v/v) DMSO (syringe sample). The first injection was 0.4 μL over a 0.8 s duration, and the remaining 19 injections were 2 μL of 4 s duration, with 150 s injection spacing. Data were collected and analysed using the PEAQ-ITC software (MicroCal) and fit by a single site binding model. A fitted offset (constant control heat) was also applied to the integrated heat.

in vitro = conditions: human

SMILES: Cc1cc(Cl)c(S(=O)(=O)N2CCCC2)cc1OCC(=O)NC1CCCCC1 [M-833]
- inhibition at 0.625 µM ([1]; 3D7, 3D7 replicate 1, M-833 0.625 uM): 84.4%
- inhibition at 1.25 µM ([1]; 3D7, 3D7 replicate 1, M-833 1.25 uM): 93.1%
- inhibition at 2.5 µM ([1]; 3D7, 3D7 replicate 1, M-833 2.5 uM): 95.8%
- inhibition at 5 µM ([1]; 3D7, 3D7 replicate 1, M-833 5 uM): 95.5%
- inhibition at 10 µM ([1]; 3D7, 3D7 replicate 1, M-833 10 uM): 97.3%
- EC50 ([1]; 3D7, 72 h, Fig 2B, 3D7, 72 h, n = 3, unit only in x-axis title, read-out: EC50 (95% confidence interval)): 97.6 nM
- EC50 ([1]; 3D7, 72 h, Fig 2D, 3D7, 72 h, n = 3, read-out: EC50 (95% confidence interval)): 49.7 nM
- EC50 ([1]; 3D7, 72 h, Supplementary Table 1, 3D7, 72 h, read-out: EC50): 156 nM
- EC50 ([1]; 3D7, Fig 1B, 3D7, 10 µM to 0.04 µM M-833, n = 3, unit only on x-axis label, read-out: EC50 (95% confidence interval)): 170 nM
- EC50 ([1]; 3D7, Fig 3C, 3D7, 0 mM GlcN, n = 4, unit on plot axis, read-out: EC50 M-833 (95% confidence interval)): 157 nM
- EC50 ([1]; 3D7, Fig 3C, 3D7, 0.25 mM GlcN, n = 4, unit on plot axis, read-out: EC50 M-833 (95% confidence interval)): 158 nM
- EC50 ([1]; 3D7, Fig 3C, 3D7, 2.5 mM GlcN, n = 4, unit on plot axis, read-out: EC50 M-833 (95% confidence interval)): 118 nM
- EC50 ([1]; 3D7, Fig 3F, 3D7, 0.25 mM GlcN, n = 3, read-out: EC50 M-833 (95% confidence interval)): 54.8 nM
- EC50 ([1]; 3D7, Fig 3F, 3D7, 2.5 mM GlcN, n = 3, read-out: EC50 M-833 (95% confidence interval)): 37.3 nM
- EC50 ([1]; 3D7, Fig 4A, 3D7 parasites, read-out: Pf 3D7 EC50 (SD)): 1100 nM
- inhibition at 0.0390625 µM ([1]; 3D7 replicate 1): 1.91%
- inhibition at 0.0390625 µM ([1]; 3D7 replicate 3): -5.13%
- inhibition at 0.078125 µM ([1]; 3D7 replicate 1): 30.8%
- inhibition at 0.078125 µM ([1]; 3D7 replicate 3): -1.15%
- inhibition at 0.15625 µM ([1]; 3D7 replicate 1): 57.1%
- inhibition at 0.15625 µM ([1]; 3D7 replicate 3): 12.4%
- inhibition at 0.3125 µM ([1]; 3D7 replicate 1): 82.6%
- inhibition at 0.3125 µM ([1]; 3D7 replicate 3): 44.5%
- inhibition at 0.625 µM ([1]; 3D7, M-833 0.625 uM, 3D7 replicate 1): 87.3%
- inhibition at 0.625 µM ([1]; 3D7, M-833 0.625 uM, 3D7 replicate 3): 64.5%
- inhibition at 1.25 µM ([1]; 3D7, M-833 1.25 uM, 3D7 replicate 1): 91%
- inhibition at 1.25 µM ([1]; 3D7, M-833 1.25 uM, 3D7 replicate 3): 73.5%
- inhibition at 2.5 µM ([1]; 3D7, M-833 2.5 uM, 3D7 replicate 1): 91.8%
- inhibition at 2.5 µM ([1]; 3D7, M-833 2.5 uM, 3D7 replicate 3): 77.3%
- inhibition at 5 µM ([1]; 3D7, M-833 5 uM, 3D7 replicate 1): 91.3%
- inhibition at 5 µM ([1]; 3D7, M-833 5 uM, 3D7 replicate 3): 83.4%
- inhibition at 10 µM ([1]; 3D7, M-833 10 uM, 3D7 replicate 1): 91.1%
- inhibition at 10 µM ([1]; 3D7, M-833 10 uM, 3D7 replicate 3): 78%
- effect of GlcN addition on EC50 ([1]; control 3D7): did not change the EC50
- Kd ([2]; ITC, 25 °C, 90 µM PfSTART1 titrated into 10 µM compound, n = 2, ± SD): 42 ± 12 nM
- ΔH ([2]; ITC, 25 °C, n = 2, ± SD): -7.6 ± 0.2 kcal/mol
- −TΔS ([2]; ITC, 25 °C, n = 2, ± SD): -2.5 ± 0.4 kcal/mol
- Differential Power DP_Y ([2]; DP_X 0.083333): -0.001604
- Differential Power DP_Y ([2]; DP_X 0.1): -0.001099
- ΔH NDH_Y ([2]; NDH_X 0.104703): -8.4
- ΔH NDH_Y ([2]; NDH_X 0.192876): -6.335
- CC50 (in vitro): > 40000 nM
